SMILES strings stand for the structures. Bounds are passed on as bounds.

The text below walks through data of patent US7282608B2, “Inhibitors of histone deacetylase” (Methylgene, Inc., priority 2002, dated 2007).

One assay has as its target Human HDAC-1 (Homo sapiens, UniProt Q13547). Put plainly: Human HDAC-1 Assay 2: Boc-Lys(Ac)-AMC fluorescence assay. Conditions: Assay 2, bracketed [ ] data; Boc-Lys(Ac)-AMC substrate. It counts as biochemical. As for the experimental part:
In the alternative, the following protocol was used to assay the compounds of the invention. In the assay, the buffer used was 25 mM HEPES, pH 8.0, 137 mM NaCl, 2.7 mM KCl, 1 mM MgCl2 and the subtrate was Boc-Lys(Ac)-AMC in a 50 mM stock solution in DMSO. The enzyme stock solution was 4.08 μg/mL in buffer.
The compounds were pre-incubated (2 μl in DMSO diluted to 13 μl in buffer for transfer to assay plate) with enzyme (20 μl of 4.08 μg/ml) for 10 minutes at room temperature (35 μl pre-incubation volume). The mixture was pre-incubated for 5 minutes at room temperature. The reaction was started by bringing the temperature to 37° C. and adding […] substrate. Total reaction volume was 50 μl. The reaction was stopped after 20 minutes by addition of 50 μl developer, prepared as directed by Biomol (Fluor-de-Lys developer, Cat. # KI-105). A plate was incubated in the dark for 10 minutes at room temperature before reading (λEX=360 nm, λEx=470 nm, Cutoff filter at 435 nm).
IC50 values for representative compounds assayed using this procedure are presented in the third column of Table 9 (bracketed [ ] data).

Another assay has as its system HCT116 cells. The experiment in a line: MTT assay. It counts as cell-based. The note with it: Homo sapiens, HCT-116, 72 hours. As for the experimental part: HCT116 cells (2000/well) were plated into 96-well tissue culture plates one day before compound treatment. Compounds at various concentrations were added to the cells. The cells were incubated for 72 hours at 37° C. in 5% CO2 incubator. MTT (3-[4,5-dimethylthiazol-2-yl]-2,5 diphenyl tetrazolium bromide, Sigma) was added at a final concentration of 0.5 mg/ml and incubated with the cells for 4 hours before one volume of solubilization buffer (50% N,N-dimethylformamide, 20% SDS, pH 4.7) was added onto the cultured cells. After overnight incubation, solubilized dye was quantified by colorimetric reading at […] using a reference at […] using an MR700 plate reader (Dynatech Laboratories Inc.). OD values were converted to cell numbers according to a standard growth curve of the relevant cell line. The concentration which reduces cell numbers to 50% of that of solvent treated cells is determined as MTT IC50. IC50 values for representative compounds are presented in the fourth column of Tables 7–10.

The test system of assay [1] is acetylated histone H-4 in T24 human bladder cancer cells. Put plainly: Histone H4 acetylation in whole cells by immunoblots. It counts as cell-based. Conditions: 16 h, immunoblot densitometry, read-out: H4 Ac (T24) EC50. As for the experimental part: T24 human bladder cancer cells growing in culture were incubated with HDAC inhibitors for 16 h. Histones were extracted from the cells after the culture period as described by M. Yoshida et al. (J. Biol. Chem. 265(28): 17174–17179 (1990)). […] of total histone protein was loaded onto SDS/PAGE and transferred to nitrocellulose membranes. Membranes were probed with polyclonal antibodies specific for acetylated histone H-4 (Upstate Biotech Inc.), followed by horse radish peroxidase conjugated secondary antibodies (Sigma). Enhanced Chemiluminescence (ECL) (Amersham) detection was performed using Kodak films (Eastman Kodak). Acetylated H-4 signal was quantified by densitometry. Representative data are presented in the fifth column of Table 7–10. Data are presented as the concentration effective for […] the acetylated H-4 signal by 50% (EC50).

Assay [2] has as its target T1, cloned recombinant human HDAC-1 (Homo sapiens, UniProt Q13547).
T1 construct: made in house; host or cells: Baculovirus insect cell expression system
The experiment in a line: Human HDAC-1 Assay 1: [3H]-acetylated histone deacetylase assay. It counts as biochemical. The note with it: Assay 1, unbracketed data; [3H]-acetylated histone substrate, 10 min at 37° C. As for the experimental part: HDAC inhibitors were screened against a cloned recombinant human HDAC-1 enzyme expressed and purified from a Baculovirus insect cell expression system. For deacetylase assays, 20,000 cpm of the [^3H]-metabolically labeled acetylated histone substrate (M. Yoshida et al., J. Biol. Chem. 265(28): 17174–17179 (1990)) was incubated with 30 μg of the cloned recombinant hHDAC-1 for 10 minutes at 37° C. The reaction was stopped by adding acetic acid (0.04 M, final concentration) and HCl (250 mM, final concentration). […] For inhibition studies, the enzyme was preincubated with compounds at 4° C. for 30 minutes prior to initiation of the enzymatic assay. IC50 values for HDAC enzyme inhibitors were determined by performing dose response curves with individual compounds and determining the concentration of inhibitor producing fifty percent of the maximal inhibition. IC50 values for representative compounds assayed using this procedure are presented in the third column of Tables 7–10 (excepting bracketed data).

Human HDAC-1, sequence (Q13547 whole entry): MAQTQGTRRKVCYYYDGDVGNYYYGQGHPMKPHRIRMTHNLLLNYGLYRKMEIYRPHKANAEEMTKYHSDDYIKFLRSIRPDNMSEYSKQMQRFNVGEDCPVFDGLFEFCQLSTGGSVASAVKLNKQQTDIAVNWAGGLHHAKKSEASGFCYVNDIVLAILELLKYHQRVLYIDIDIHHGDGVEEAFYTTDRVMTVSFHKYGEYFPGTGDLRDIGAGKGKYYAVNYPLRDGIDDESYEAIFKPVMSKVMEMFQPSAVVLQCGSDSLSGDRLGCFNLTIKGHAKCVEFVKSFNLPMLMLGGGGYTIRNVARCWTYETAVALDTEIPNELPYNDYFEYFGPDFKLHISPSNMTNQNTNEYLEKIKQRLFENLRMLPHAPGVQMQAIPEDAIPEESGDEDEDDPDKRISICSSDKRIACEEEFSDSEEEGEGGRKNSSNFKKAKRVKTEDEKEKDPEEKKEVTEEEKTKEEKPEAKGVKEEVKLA
T1 sequence (Q13547 whole entry): as above

Consider `Nc1ccccc1NC(=O)c1ccc(/C=C/CN2CCN(c3ccccn3)CC2)cc1` [XXXc, N-(2-Amino-phenyl)-4-[3-(4-pyridin-2-yl-piperazin-1-yl)-propenyl]-benzamide], for which the values for the IC50 against Human HDAC-1 and in the assay on HCT116 cells were 820 nM and 500 nM, respectively. The EC50 in assay [1] stood at 2000 nM.
Consider `Nc1ccccc1NC(=O)c1ccc(/C=C/CN2Cc3ccccc3C2)cc1` [XXXa, N-(2-Amino-phenyl)-4-[3-(1,3-dihydro-isoindol-2-yl)-propenyl]-benzamide], for which the results for the IC50 on Human HDAC-1 and in the assay with HCT116 cells were 260 nM and 1000 nM, respectively. Moreover, the EC50 in assay [1] is 4000 nM.
For the molecule `Nc1ccccc1NC(=O)c1ccc(/C=C/C(=O)c2ccc(N3CCOCC3)cc2)cc1` [XXIVf, N-(2-Amino-phenyl)-4-[3-(4-morpholin-4-yl-phenyl)-3-oxo-propenyl]-benzamide], the results for the IC50 (in assay [2]; with HCT116 cells) were 10000 nM and 300 nM, respectively. For the same molecule, the EC50 in assay [1] was 3000 nM.
Turning to `CSc1nc(NC/C=C/c2ccc(C(=O)Nc3ccccc3N)cc2)n[nH]1` [XVe, N-(2-Amino-phenyl)-4-[3-(5-methylsulfanyl-1H-[1,2,4]triazol-3-ylamino)-propenyl]-benzamide], the IC50 in assay [2] amounted to 2000 nM; in the assay with HCT116 cells it was 500 nM. The EC50 in assay [1] came out at 1000 nM.
Regarding `COc1cc(CNC(=O)/C=C/c2ccc(C(=O)Nc3ccccc3N)cc2)cc(OC)c1OC` [Vc, N-(2-Amino-phenyl)-4-[2-(3,4,5-trimethoxy-benzylcarbamoyl)-vinyl]-benzamide], the IC50 was 3000 nM in assay [2] and 900 nM in the assay on HCT116 cells. Also, the EC50 in assay [1] worked out at 2000 nM.
The matching figures for `Nc1ccccc1NC(=O)c1ccc(/C=C/C(=O)NCCc2cccnc2)cc1` [Vf, N-(2-Amino-phenyl)-4-[2-(2-pyridin-3-yl-ethylcarbamoyl)-vinyl]-benzamide]: 5000 nM, 300 nM and 1000 nM.
`COc1cccc(C(=O)/C=C/c2ccc(C(=O)Nc3ccccc3N)cc2)c1` [XXIVd, N-(2-Amino-phenyl)-4-[3-(3-methoxy-phenyl)-3-oxo-propenyl]-benzamide]: the IC50 stood at 4000 nM in assay [2] and 300 nM with HCT116 cells. The EC50 in assay [1] is less than 5000 nM.
Take `Nc1ccccc1NC(=O)c1ccc(/C=C/C(=O)NCCc2ccccn2)cc1` [Vi, N-(2-Amino-phenyl)-4-[2-(2-pyridin-2-yl-ethylcarbamoyl)-vinyl]-benzamide]: the IC50 in assay [2] was 4000 nM; with HCT116 cells, 1000 nM. The EC50 in assay [1] was determined as 3000 nM.
Consider `Nc1ccccc1NC(=O)c1ccc(/C=C/C(=O)NCCOc2ccccc2)cc1` [Vd, N-(2-Amino-phenyl)-4-[2-(2-phenoxy-ethylcarbamoyl)-vinyl]-benzamide], for which the half-maximal inhibitory concentration (IC50) in assay [2] stood at 1000 nM; with HCT116 cells, 400 nM. Also, in assay [1], the concentration for a half-maximal effect (EC50) was found to be 1000 nM.
On to `Nc1ccccc1NC(=O)c1ccc(/C=C/CNC2Cc3ccccc3C2)cc1` [XXXe, N-(2-Amino-phenyl)-4-[3-(indan-2-ylamino)-propenyl]-benzamide], for which the IC50 against Human HDAC-1 was 790 nM; in the assay with HCT116 cells it was 2000 nM.
On to `CN(C/C=C/c1ccc(C(=O)Nc2ccccc2N)cc1)Cc1ccccc1` [XXXd, N-(2-Amino-phenyl)-4-[3-(benzyl-methyl-amino)-propenyl]-benzamide], for which the IC50 on Human HDAC-1 came to 170 nM; in the assay on HCT116 cells, 2000 nM.
Turning to `Nc1ccccc1NC(=O)c1ccc(/C=C/C(=O)c2ccccc2)cc1` [XXIVa, N-(2-Amino-phenyl)-4-(3-oxo-3-phenyl-propenyl)-benzamide], the IC50 in assay [2] worked out at 4000 nM; in the assay on HCT116 cells, 400 nM. In addition, in assay [1], the concentration for a half-maximal effect (EC50) is 3000 nM.
For `COc1ccc(/C=C/C(=O)c2ccc(C(=O)Nc3ccccc3N)cc2)cc1OC1CCCC1` [Ij, N-(2-Amino-phenyl)-4-[3-(3-cyclopentyloxy-4-methoxy-phenyl)-acryloyl]-benzamide], the IC50 was 4000 nM in assay [2] and 700 nM in the assay with HCT116 cells. Also, the concentration for a half-maximal effect (EC50) in assay [1] worked out at 5000 nM.
`Nc1ccccc1NC(=O)c1ccc(/C=C/C(=O)NCCc2c[nH]c3ccccc23)cc1` [Vj, N-(2-Amino-phenyl)-4-{2-[2-(1H-indol-3-yl)-ethylcarbamoyl]-vinyl}-benzamide]: the 50% inhibitory concentration (IC50) in assay [2] stood at 1000 nM; in the assay on HCT116 cells, 300 nM. In assay [1], the 50% effective concentration (EC50) worked out at 1000 nM.
Turning to `COc1cc(C)nc(NC/C=C/c2ccc(C(=O)Nc3ccccc3N)cc2)n1` [XVd, N-(2-Amino-phenyl)-4-[3-(4-methoxy-6-methyl-pyrimidin-2-ylamino)-propenyl]-benzamide], the values for the IC50 (in assay [2]; in the assay on HCT116 cells) were 4000 nM and 300 nM, respectively. Also, the EC50 in assay [1] was found to be 3000 nM.
With `Nc1ccccc1NC(=O)c1ccc(C(=O)/C=C/c2cccnc2)cc1` [Ib, N-(2-Amino-phenyl)-4-(3-pyridin-3-yl-acryloyl)-benzamide], the results for the IC50 (in assay [2]; with HCT116 cells) were 2000 nM and 900 nM, respectively. Also, the EC50 in assay [1] came to 5000 nM.
As for `Nc1ccccc1NC(=O)c1ccc(C(=O)/C=C/c2ccc(C(F)(F)F)cc2)cc1` [Ih, N-(2-Amino-phenyl)-4-[3-(4-trifluoromethyl-phenyl)-acryloyl]-benzamide], the IC50 is 5000 nM in assay [2] and 1000 nM with HCT116 cells. The EC50 in assay [1] is 5000 nM.
With `Nc1ccccc1NC(=O)c1ccc(/C=C/CNc2nc3ccccc3s2)cc1` [XVc, N-(2-Amino-phenyl)-4-[3-(benzothiazol-2-ylamino)-propenyl]-benzamide], the IC50 turned out to be 800 nM in assay [2] and 1000 nM in the assay on HCT116 cells. Moreover, the half-maximal effective concentration (EC50) in assay [1] is less than 1000 nM.
Turning to `COc1ccc(NC/C=C/c2ccc(C(=O)Nc3ccccc3N)cc2)cc1OC` [XVi, N-(2-Amino-phenyl)-4-[3-(3,4-dimethoxy-phenylamino)-propenyl]-benzamide], the IC50 (in assay [2]; with HCT116 cells) was 1000 nM throughout. For the same molecule, the EC50 in assay [1] was determined as 4000 nM.
Turning to `Nc1ccccc1NC(=O)c1ccc(/C=C/C(=O)NCc2cccnc2)cc1` [Vb, N-(2-Amino-phenyl)-4-{2-[(pyridin-3-ylmethyl)-carbamoyl]-vinyl}-benzamide], the IC50 in assay [2] came to 3000 nM; in the assay with HCT116 cells, 70 nM. For the same molecule, in assay [1], the EC50 turned out to be 1000 nM.
Turning to `Nc1ccccc1NC(=O)c1ccc(/C=C/C(=O)c2ccccc2[N+](=O)[O-])cc1` [XXIVb, N-(2-Amino-phenyl)-4-[3-(2-nitro-phenyl)-3-oxo-propenyl]-benzamide], the IC50 in assay [2] was determined as 8000 nM; in the assay on HCT116 cells it was 100 nM. In assay [1], the concentration for a half-maximal effect (EC50) is 3000 nM.
